Results: ChEMBL document CHEMBL1147203, “Phosph(on)ate as a zinc-binding group in metalloenzyme inhibitors: X-ray crystal structure of the antiviral drug foscarnet complexed to human carbonic anhydrase I” (Bioorg Med Chem Lett, 2007)

What was measured:
Carbonic anhydrase 13 = Carbonic anhydrase 13 (Mus musculus, UniProt Q9D6N1); assay: Inhibition of mouse recombinant CA13 by CO2 hydration assay
Carbonic anhydrase 12 = Carbonic anhydrase 12 (Homo sapiens, UniProt O43570); assay: Inhibition of human recombinant CA12 by CO2 hydration assay
Chain of Carbonic anhydrase 12 (O43570 whole entry): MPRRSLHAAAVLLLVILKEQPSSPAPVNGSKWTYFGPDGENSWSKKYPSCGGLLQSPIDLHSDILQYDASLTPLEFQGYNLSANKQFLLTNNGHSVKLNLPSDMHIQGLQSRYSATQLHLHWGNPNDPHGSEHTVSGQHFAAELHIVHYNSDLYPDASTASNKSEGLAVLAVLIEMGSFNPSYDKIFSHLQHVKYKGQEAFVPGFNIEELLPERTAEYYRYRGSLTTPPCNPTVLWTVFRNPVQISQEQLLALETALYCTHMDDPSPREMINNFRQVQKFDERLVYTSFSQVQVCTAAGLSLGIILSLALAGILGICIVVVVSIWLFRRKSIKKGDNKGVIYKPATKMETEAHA

[1] = biological target: Carbonic anhydrase 5B, mitochondrial (Homo sapiens, UniProt Q9Y2D0); assay: Inhibition of human recombinant CA5B by CO2 hydration assay
Chain of Carbonic anhydrase 5B, mitochondrial (Q9Y2D0 whole entry): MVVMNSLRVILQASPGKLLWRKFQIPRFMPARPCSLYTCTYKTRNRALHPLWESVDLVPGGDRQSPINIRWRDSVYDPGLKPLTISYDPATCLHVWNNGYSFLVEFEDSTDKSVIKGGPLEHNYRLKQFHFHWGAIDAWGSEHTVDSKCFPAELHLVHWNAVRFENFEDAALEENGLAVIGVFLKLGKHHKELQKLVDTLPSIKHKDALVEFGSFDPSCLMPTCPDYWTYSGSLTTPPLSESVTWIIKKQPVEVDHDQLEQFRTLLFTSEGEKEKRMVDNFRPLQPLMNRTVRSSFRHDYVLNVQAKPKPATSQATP

Carbonic anhydrase 14 = Carbonic anhydrase 14 (Homo sapiens, UniProt Q9ULX7); assay: Inhibition of human recombinant CA14 by CO2 hydration assay
Chain of Carbonic anhydrase 14 (Q9ULX7 whole entry): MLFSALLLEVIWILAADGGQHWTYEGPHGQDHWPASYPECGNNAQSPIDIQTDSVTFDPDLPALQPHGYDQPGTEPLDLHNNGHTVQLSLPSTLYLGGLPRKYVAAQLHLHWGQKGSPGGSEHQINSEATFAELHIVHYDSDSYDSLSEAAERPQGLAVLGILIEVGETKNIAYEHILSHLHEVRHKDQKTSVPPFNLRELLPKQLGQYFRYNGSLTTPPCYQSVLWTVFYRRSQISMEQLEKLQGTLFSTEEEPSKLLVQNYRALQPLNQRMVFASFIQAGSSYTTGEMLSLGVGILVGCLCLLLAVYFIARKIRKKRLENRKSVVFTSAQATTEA

Carbonic anhydrase 6 = Carbonic anhydrase 6 (Homo sapiens, UniProt P23280); assay: Inhibition of human recombinant CA6 by CO2 hydration assay
Chain of Carbonic anhydrase 6 (P23280 whole entry): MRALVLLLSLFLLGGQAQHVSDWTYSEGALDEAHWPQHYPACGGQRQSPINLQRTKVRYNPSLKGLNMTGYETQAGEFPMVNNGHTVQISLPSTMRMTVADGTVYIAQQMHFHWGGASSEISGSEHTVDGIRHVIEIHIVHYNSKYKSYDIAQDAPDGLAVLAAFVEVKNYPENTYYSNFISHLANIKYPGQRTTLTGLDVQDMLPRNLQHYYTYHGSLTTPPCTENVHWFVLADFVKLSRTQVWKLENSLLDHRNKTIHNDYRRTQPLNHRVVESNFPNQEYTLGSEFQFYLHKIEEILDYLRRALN

Carbonic anhydrase 7 = Carbonic anhydrase 7 (Homo sapiens, UniProt P43166); assay: Inhibition of human recombinant CA7 by CO2 hydration assay
Chain of Carbonic anhydrase 7 (P43166 whole entry): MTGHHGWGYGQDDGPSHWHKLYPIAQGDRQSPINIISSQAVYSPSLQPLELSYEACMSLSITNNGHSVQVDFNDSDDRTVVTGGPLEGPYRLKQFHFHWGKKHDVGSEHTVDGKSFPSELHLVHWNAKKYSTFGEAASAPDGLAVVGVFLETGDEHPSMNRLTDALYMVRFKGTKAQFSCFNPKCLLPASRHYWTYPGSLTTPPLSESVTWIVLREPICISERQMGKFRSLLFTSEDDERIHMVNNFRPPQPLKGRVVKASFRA

Chain of Carbonic anhydrase 13 (Q9D6N1 whole entry): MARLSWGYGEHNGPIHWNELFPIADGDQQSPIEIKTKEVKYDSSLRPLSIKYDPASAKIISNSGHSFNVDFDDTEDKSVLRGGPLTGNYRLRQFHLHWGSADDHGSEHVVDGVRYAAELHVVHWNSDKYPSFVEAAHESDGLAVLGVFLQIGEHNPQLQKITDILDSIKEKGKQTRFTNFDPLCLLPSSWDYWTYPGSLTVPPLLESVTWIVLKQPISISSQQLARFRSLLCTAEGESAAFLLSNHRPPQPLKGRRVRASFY

SMILES: O=C(O)P(=O)(O)O [FOSCARNET SODIUM]
- Ki (Carbonic anhydrase 13): 870 µM
- Ki (Carbonic anhydrase 12): 1290 µM
- Ki [1]: 11800 µM
- Ki (Carbonic anhydrase 14): 3600 µM
- Ki (Carbonic anhydrase 6): 1810 µM
- Ki (Carbonic anhydrase 7): 560 µM
